From patent US20160108049A1 (TAKEDA Gmbh, priority 2011, published 2016)

What was measured:
PDE4B1 = biological target: T1, PDE4B1 (Homo sapiens, UniProt Q07343); experiment: Inhibition of PDE4 activity (PDE4B1, SPA assay); assay type: biochemical; conditions: recombinant PDE4B1, 0.5 μM cAMP; read-out: PDE4B1 Inhibitory values measured as -logIC50 (converted)
T1 construct: made in house; host or cells: SF21 insect cells (baculovirus; virus made in SF9 cells, pCR-Bac vector)
In short: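 Baculovirus-expressed enzyme from SF21 cell 1000×g supernatant; substrate 0.5 μM [3H]cAMP in 20 mM Tris pH 7.4, 5 mM Mg2+, 0.1 mg/ml BSA, 10-20% conversion. 5 min preincubation at 37 °C, 15 min reaction, stopped by SPA beads with IBMX; IC50 by non-linear regression.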

human PDE5 = biological target: T2, human PDE5 (Homo sapiens, UniProt O76074); experiment: Inhibition of PDE5 activity (platelet lysate, SPA assay); assay type: biochemical; conditions: 0.5 μM cGMP, read-out: PDE5 Inhibitory values measured as -logIC50 (converted)
T2 construct: from tissue; host or cells: human platelets from fresh donor blood (platelet lysate)
In short: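 Human platelet lysate (10,000 g supernatant) served as PDE5 source, with 1 μM motapizone and 10 nM PDE2 inhibitor added, in Tris pH 7.4, 5 mM Mg2+, BSA. Substrate 0.5 μM [3H]cGMP, 10–20% conversion; 5 min preincubation then 15 min at 37 °C, stopped by SPA beads with IBMX. IC50 by non-linear regression.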

T1 sequence (Q07343 whole entry): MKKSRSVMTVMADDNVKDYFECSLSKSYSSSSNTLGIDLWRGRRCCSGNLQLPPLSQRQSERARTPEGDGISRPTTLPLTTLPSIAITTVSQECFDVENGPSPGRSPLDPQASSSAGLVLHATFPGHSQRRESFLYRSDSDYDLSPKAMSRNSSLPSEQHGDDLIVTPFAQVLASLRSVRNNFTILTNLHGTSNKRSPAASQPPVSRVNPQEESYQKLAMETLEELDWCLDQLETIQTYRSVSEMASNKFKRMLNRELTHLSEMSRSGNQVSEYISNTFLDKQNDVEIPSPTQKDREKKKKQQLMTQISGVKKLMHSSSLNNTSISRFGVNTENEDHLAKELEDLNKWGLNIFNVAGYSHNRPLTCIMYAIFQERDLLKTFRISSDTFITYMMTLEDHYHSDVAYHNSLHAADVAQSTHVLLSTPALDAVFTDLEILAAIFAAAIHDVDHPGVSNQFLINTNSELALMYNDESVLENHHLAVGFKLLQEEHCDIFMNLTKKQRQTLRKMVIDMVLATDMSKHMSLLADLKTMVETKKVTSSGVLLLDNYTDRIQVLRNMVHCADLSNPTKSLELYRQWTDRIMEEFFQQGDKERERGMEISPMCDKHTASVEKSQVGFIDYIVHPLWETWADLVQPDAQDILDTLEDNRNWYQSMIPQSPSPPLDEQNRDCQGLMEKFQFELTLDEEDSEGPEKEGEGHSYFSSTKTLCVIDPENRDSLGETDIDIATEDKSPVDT

Row | SMILES | IC50 (PDE4B1) [nM] | IC50 (human PDE5) [nM]
1 | COc1ccc(C2=NN(C3CCN(C(=O)[C@@H](CCC(=O)N(C)C)NC(=O)c4c(C)[nH]c5c(-c6c(OCC7CC7)ccc7c6OCO7)ncnc45)CC3)C(=O)C(C)(C)C2)cc1OC [Example 118, 4-[5-(cyclopropylmethoxy)-1,3-benzodioxol-4-yl]-N-[(2R)-1-{4-[3-(3,4-dimethoxyphenyl)-5,5-dimethyl-6-oxo-5,6-dihydropyridazin-1(4H)-yl]piperidin-1-yl}-5-(dimethylamino)-1,5-dioxopentan-2-yl]-6-methyl-5H-pyrrolo[3,2-d]pyrimidine-7-carboxamide] | 1 to 10 | < 1
2 | COc1ccc(C2=NN(C3CCN(C(=O)[C@H](NC(=O)c4c[nH]c5c(-c6c(OCC7CC7)ccc7c6OCO7)ncnc45)C(C)C)CC3)C(=O)[C@@H]3CCCC[C@H]23)cc1OC [Example 119, 4-[5-(cyclopropylmethoxy)-1,3-benzodioxol-4-yl]-N-[(2R)-1-{4-[(4aS,8aR)-4-(3,4-dimethoxyphenyl)-1-oxo-4a,5,6,7,8,8a-hexahydrophthalazin-2(1H)-yl]piperidin-1-yl}-3-methyl-1-oxobutan-2-yl]-5H-pyrrolo[3,2-d]pyrimidine-7-carboxamide] | < 1 | < 1
3 | COc1ccc(C2=NN(C3CCN(C(=O)[C@H](NC(=O)c4c(C)[nH]c5c(-c6c(OCC7CC7)ccc7c6OCO7)ncnc45)C(C)C)CC3)C(=O)[C@@H]3CCCC[C@H]23)cc1OC [Example 120, 4-[5-(cyclopropylmethoxy)-1,3-benzodioxol-4-yl]-N-[(2R)-1-{4-[(4aS,8aR)-4-(3,4-dimethoxyphenyl)-1-oxo-4a,5,6,7,8,8a-hexahydrophthalazin-2(1H)-yl]piperidin-1-yl}-3-methyl-1-oxobutan-2-yl]-6-methyl-5H-pyrrolo[3,2-d]pyrimidine-7-carboxamide] | 1 to 10 | 1 to 10
4 | COc1ccc(C2=NN(C3CCN(C(=O)[C@H](NC(=O)c4c[nH]c5c(-c6c(OCC7CC7)ccc7c6OCO7)ncnc45)C(C)(C)C)CC3)C(=O)[C@@H]3CCCC[C@H]23)cc1OC [Example 121, 4-[5-(cyclopropylmethoxy)-1,3-benzodioxol-4-yl]-N-[(2R)-1-{4-[(4aS,8aR)-4-(3,4-dimethoxyphenyl)-1-oxo-4a,5,6,7,8,8a-hexahydrophthalazin-2(1H)-yl]piperidin-1-yl}-3,3-dimethyl-1-oxobutan-2-yl]-5H-pyrrolo[3,2-d]pyrimidine-7-carboxamide] | 1 to 10 | 1 to 10

Further lines, results first:

Row | IC50 (PDE4B1) [nM] | IC50 (human PDE5) [nM] | SMILES
5 | 1 to 10 | 1 to 10 | COc1ccc(C2=NN(C3CCN(C(=O)CNC(=O)c4c[nH]c5c(-c6c(OCC7CC7)ccc7c6OCO7)ncnc45)CC3)C(=O)C3(CCCC3)C2)cc1OC [Example 122, 4-[5-(cyclopropylmethoxy)-1,3-benzodioxol-4-yl]-N-(2-{4-[9-(3,4-dimethoxyphenyl)-6-oxo-7,8-diazaspiro[4.5]dec-8-en-7-yl]piperidin-1-yl}-2-oxoethyl)-5H-pyrrolo[3,2-d]pyrimidine-7-carboxamide]
6 | 1 to 10 | 1 to 10 | COc1ccc(C2=NN(C3CCN(C(=O)[C@@H](Cc4ccccc4)NC(=O)c4c[nH]c5c(-c6c(OCC7CC7)ccc7c6OCO7)ncnc45)CC3)C(=O)C3(CCCC3)C2)cc1OC [Example 123, 4-[5-(cyclopropylmethoxy)-1,3-benzodioxol-4-yl]-N-[(2R)-1-{4-[9-(3,4-dimethoxyphenyl)-6-oxo-7,8-diazaspiro[4.5]dec-8-en-7-yl]piperidin-1-yl}-1-oxo-3-phenylpropan-2-yl]-5H-pyrrolo[3,2-d]pyrimidine-7-carboxamide]
7 | 1 to 10 | 1 to 10 | COc1ccc(C2=NN(C3CCN(C(=O)[C@@H](Cc4ccccc4)NC(=O)c4c(C)[nH]c5c(-c6c(OCC7CC7)ccc7c6OCO7)ncnc45)CC3)C(=O)C3(CCCC3)C2)cc1OC [Example 124, 4-[5-(cyclopropylmethoxy)-1,3-benzodioxol-4-yl]-N-[(2R)-1-{4-[9-(3,4-dimethoxyphenyl)-6-oxo-7,8-diazaspiro[4.5]dec-8-en-7-yl]piperidin-1-yl}-1-oxo-3-phenylpropan-2-yl]-6-methyl-5H-pyrrolo[3,2-d]pyrimidine-7-carboxamide]
8 | 1 to 10 | 1 to 10 | COc1ccc(C2=NN(C3CCN(C(=O)[C@H](Cc4cccnc4)NC(=O)c4c[nH]c5c(-c6c(OCC7CC7)ccc7c6OCO7)ncnc45)CC3)C(=O)C3(CCCC3)C2)cc1OC [Example 125, 4-[5-(cyclopropylmethoxy)-1,3-benzodioxol-4-yl]-N-[(2S)-1-{4-[9-(3,4-dimethoxyphenyl)-6-oxo-7,8-diazaspiro[4.5]dec-8-en-7-yl]piperidin-1-yl}-1-oxo-3-(pyridin-3-yl)propan-2-yl]-5H-pyrrolo[3,2-d]pyrimidine-7-carboxamide]
